Results published in US20180320217A1, “METHODS FOR SAMPLING AND MEASURING ORAL LAVAGE PROTEINS” (The Procter & Gamble Company, priority 2017, published 2018).
Where a name gives a salt, the structure may show the parent alone.

Tests used:
[1] = system: diaphorase; test: Formation of formazan dyes: NADH and diaphorase, absence of malate (TABLE 7); assay type: biochemical, Clostridium kluyveri; settings: NADH and diaphorase, absence of malate
[2] = system: diaphorase; test: Formation of formazan dyes: NADH, diaphorase and malate (TABLE 8); assay type: biochemical, Clostridium kluyveri; settings: NADH, diaphorase and malate
[3] = system: oral lavage; test: Formation of formazan dyes: oral lavage and diaphorase, not malate (TABLE 11); assay type: biochemical, human
[4] = system: diaphorase; test: Formation of formazan dyes: only diaphorase and malate (TABLE 14); assay type: biochemical, Clostridium kluyveri; settings: mean of three experiments
[5] = target: T1, Malate dehydrogenase (Sus scrofa, UniProt P00346); test: Formation of formazan dyes: Malate dehydrogenase and 1-Methoxy PMS, absence of malate (TABLE 17); assay type: biochemical, pig heart; parameters: L-malate dehydrogenase (pig heart); purchased Sigma-Aldrich 10127248001 / 10127914001; settings: Malate dehydrogenase and 1-Methoxy PMS, absence of malate, mean of three experiments
T1 sequence (P00346 25-338): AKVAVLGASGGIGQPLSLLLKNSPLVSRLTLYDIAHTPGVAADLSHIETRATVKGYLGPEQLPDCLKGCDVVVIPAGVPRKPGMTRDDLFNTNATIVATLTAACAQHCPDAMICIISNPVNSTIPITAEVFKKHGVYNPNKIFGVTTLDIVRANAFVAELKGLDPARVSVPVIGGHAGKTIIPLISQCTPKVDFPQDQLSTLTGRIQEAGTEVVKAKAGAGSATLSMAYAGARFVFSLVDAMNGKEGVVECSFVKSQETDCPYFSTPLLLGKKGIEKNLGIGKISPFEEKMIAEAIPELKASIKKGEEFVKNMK

Structure (SMILES): Cc1nc(-[n+]2nc(-c3cccc(OCC(=O)O)c3)nn2-c2ccc(S(=O)(=O)[O-])cc2)sc1C [MTS, 3-(4,5-dimethylthiazol-2-yl)-5-(3-carboxymethoxyphenyl)-2-(4-sulfophenyl)-2H-tetrazolium, inner salt]
- Formation of formazan dyes, absorbance, Means 0 h ([1]; 0 h): 3.21
- Formation of formazan dyes, absorbance, Means 1 h ([1]; 1 h): 3.24
- Formation of formazan dyes, absorbance, Means 2 h ([1]; 2 h): 3.22
- Formation of formazan dyes, absorbance, Means 3 h ([1]; 3 h): 3.20
- Formation of formazan dyes, absorbance, Means 4 h ([1]; 4 h): 3.27
- Formation of formazan dyes, absorbance, Means 6 h ([1]; 6 h): 3.29
- Formation of formazan dyes, absorbance, Means 8 h ([1]; 8 h): 3.28
- Formation of formazan dyes, absorbance, Means 10 h ([1]; 10 h): 3.28
- Formation of formazan dyes, absorbance, Means 12 h ([1]; 12 h): 3.28
- Formation of formazan dyes, absorbance, Means 0 h ([2]; 0 h): 3.01
- Formation of formazan dyes, absorbance, Means 1 h ([2]; 1 h): 3.01
- Formation of formazan dyes, absorbance, Means 2 h ([2]; 2 h): 3.00
- Formation of formazan dyes, absorbance, Means 3 h ([2]; 3 h): 3.00
- Formation of formazan dyes, absorbance, Means 4 h ([2]; 4 h): 3.07
- Formation of formazan dyes, absorbance, Means 6 h ([2]; 6 h): 3.09
- Formation of formazan dyes, absorbance, Means 8 h ([2]; 8 h): 3.17
- Formation of formazan dyes, absorbance, Means 10 h ([2]; 10 h): 3.08
- Formation of formazan dyes, absorbance, Means 12 h ([2]; 12 h): 3.20
- Formation of formazan dyes, absorbance, Means 0 h ([3]; oral lavage and diaphorase, not malate, 0 h): 0.70
- Formation of formazan dyes, absorbance, Means 1 h ([3]; oral lavage and diaphorase, not malate, 1 h): 0.86
- Formation of formazan dyes, absorbance, Means 2 h ([3]; oral lavage and diaphorase, not malate, 2 h): 0.91
- Formation of formazan dyes, absorbance, Means 3 h ([3]; oral lavage and diaphorase, not malate, 3 h): 1.00
- Formation of formazan dyes, absorbance, Means 4 h ([3]; oral lavage and diaphorase, not malate, 4 h): 1.13
- Formation of formazan dyes, absorbance, Means 6 h ([3]; oral lavage and diaphorase, not malate, 6 h): 1.18
- Formation of formazan dyes, absorbance, Means 8 h ([3]; oral lavage and diaphorase, not malate, 8 h): 1.21
- Formation of formazan dyes, absorbance, Means 10 h ([3]; oral lavage and diaphorase, not malate, 10 h): 1.25
- Formation of formazan dyes, absorbance, Means 12 h ([3]; oral lavage and diaphorase, not malate, 12 h): 1.27
- reduction to formazan dyes by pooled oral lavage ([3]; pooled oral lavage of high bleeder group, diaphorase, no added malate (TABLE 11)): changed to formazan dyes in a significant amount
- Absorbance, formation of formazan dyes (Means) ([4]; 0 h): 0.16
- Absorbance, formation of formazan dyes (Means) ([4]; 1 h): 0.22
- Absorbance, formation of formazan dyes (Means) ([4]; 2 h): 0.27
- Absorbance, formation of formazan dyes (Means) ([4]; 3 h): 0.32
- Absorbance, formation of formazan dyes (Means) ([4]; 4 h): 0.46
- Absorbance, formation of formazan dyes (Means) ([4]; 6 h): 0.57
- Absorbance, formation of formazan dyes (Means) ([4]; 8 h): 0.68
- Absorbance, formation of formazan dyes (Means) ([4]; 10 h): 0.79
- Absorbance, formation of formazan dyes (Means) ([4]; 12 h): 0.93
- Absorbance, formation of formazan dyes (Means) ([5]; 0 h): 0.34
- Absorbance, formation of formazan dyes (Means) ([5]; 1 h): 0.36
- Absorbance, formation of formazan dyes (Means) ([5]; 2 h): 0.33
- Absorbance, formation of formazan dyes (Means) ([5]; 3 h): 0.33
- Absorbance, formation of formazan dyes (Means) ([5]; 4 h): 0.41
- Absorbance, formation of formazan dyes (Means) ([5]; 6 h): 0.48
- Absorbance, formation of formazan dyes (Means) ([5]; 8 h): 0.48
- Absorbance, formation of formazan dyes (Means) ([5]; 10 h): 0.52
- Absorbance, formation of formazan dyes (Means) ([5]; 12 h): 0.51
